The values that follow come from patent US20130150335A1, “PACLITAXEL/STEROIDAL COMPLEX” (Institute of Mataria Medica, Chinese Academy of Medical …, priority 2009, published 2013).

A short description of data set [1]: Solubility of paclitaxel/lipid complex in oil (soybean oil, MCO, mixed oil). Type of data set: physicochemical. The following applies: for solubility at 1 h: saturated solution. As for the experimental part: Take 4 g of paclitaxel, add cholesterol, 7-dehydrocholesterol and ergosterol respectively in accordance with the amount ratio as stated in Table 2 below, move to a rotary evaporator together, dissolve with 500 ml of acetone each, mix at 45° C. for 1 hour then remove the solvent by the rotary evaporation method, vacuum dry at 65° C. for 15 hours. Take a quantity of each complex formed, add 20 g of soybean oil for injection used, heat in water bath for 1 hour and shake, obtain saturated solutions.
Using acetone as the solvent, the molar ratio of paclitaxel to cholesterol being 1:1, the reaction temperature at 35° C., the reaction time being 0.5 h, the effect of the paclitaxel concentration (16.0, 8.0, 4.0, 2.0, 1.0 and 0.5 mg/ml) on the complex preparation was investigated.
Filter the solution, take a quantity of the successive filtrate, dilute with absolute ethanol, carry out an HPLC analysis, calculate the solubility of complex in oil; take a quantity of paclitaxel, repeat the procedure.

The nature of data set [2]: Solubility of paclitaxel cholesterol complex in n-octanol. Format: physicochemical. The note with it: organic solvent or mixture, thermodynamic from solid, 25° C., saturated solution, read-out: drug solubility in n-octanol. As to the method:
Take 5 ml of the solution, filter by 0.45 μm of membrane, take an amount of the successive filtrate, dilute with absolute ethanol, carry out the ultraviolet spectrophotometry method, calculate the apparent solubility of the physical mixture and cholesterol in n-octanol, compared the results with paclitaxel.

Values after ≈ are worked out from the molar mass of the structure shown. Like-named read-outs stand apart in the source and are kept apart here.

Usually solubility stands for the concentration that dissolves in the medium under given conditions. Turning to `CC(=O)O[C@H]1C(=O)[C@@]2(C)[C@H]([C@H](OC(=O)c3ccccc3)[C@]3(O)C[C@H](OC(=O)[C@H](O)[C@@H](NC(=O)c4ccccc4)c4ccccc4)C(C)=C1C3(C)C)[C@]1(OC(C)=O)CO[C@@H]1C[C@@H]2O` [Paclitaxel], the “drug solubility in vegetable oil: Mixed oil” value in data set [1] (Table 4, soybean oil and MEDIUM CHAIN OIL (volume ratio of 1:1), 60° C.) came out at 1360 µg/mL. Further, the solubility at 1 h in data set [1] (medium chain oil (MCO), oil or lipid, thermodynamic from solid, Table 4, MEDIUM CHAIN OIL, 60° C., read-out: drug solubility in vegetable oil: MCO) turned out to be 2370 µg/mL (≈ 2780 µM); in data set [1] (oil or lipid, thermodynamic from solid, Table 4, soybean oil for injection, 60° C., read-out: drug solubility in vegetable oil: Soybean oil) it was 270 µg/mL (≈ 316 µM); in data set [1] (soybean oil for injection, oil or lipid, thermodynamic from solid, Table 2, effect of paclitaxel/steroid amount ratio, HPLC, read-out: Solubility in soybean oil), 270 µg/mL. The solubility in data set [1] (soybean oil, oil or lipid, thermodynamic from solid, Table 1, complexes per CN200810168213.X, calculated as paclitaxel) is 270 µg/mL (≈ 316 µM). Further, the solubility at 24 h in data set [2] was 8860 µg/mL (≈ 10400 µM).
